Measurements from patent US7749729B2, “Methods for assessing the risk for development of cardiovascular disease” (University of Washington, priority 2004, dated 2010).

Assays:
myeloperoxidase = target: T1, myeloperoxidase (Homo sapiens, UniProt P05164); test: Nitration of HDL by the myeloperoxidase-H2O2-NO2- system (3-nitrotyrosine formation, absorbance at 430 nm); type: biochemical; conditions: 250 μM H2O2, 500 μM NO2-
T1 construct: from tissue; host or cells: human neutrophils
Procedure: FIG. 1 describes nitration of HDL by the myeloperoxidase-H2O2-nitrite system. (A,C) HDL (1 mg/ml protein) was incubated for 60 min or the indicated time at 37° C. in phosphate buffer (20 mM sodium phosphate, pH 7.4, 100 μM DTPA) supplemented with 50 nM myeloperoxidase, 250 μM H2O2 and 500 μM NO2^−. Where indicated, the concentrations of (B) NO2^− were varied. 3-Nitrotyrosine formation was monitored spectroscopically following alkalinization of the reaction mixture.
FIG. 2 describes the effect of Cl^− or taurine on HDL nitration by the myeloperoxidase-H2O2—NO2^− system or HOCl—NO2^−. HDL was exposed for 60 min at 37° C. to myeloperoxidase in phosphate buffer supplemented with 250 μM H2O2, 500 μM NO2^− and (A) the indicated concentration of Cl^− or (B) the indicated concentration of taurine and 100 mM Cl^−. […]
HDL oxidation in vitro. […] Concentrations of HOCl and H2O2 were determined spectrophotometrically (ε292=350 M^−1 cm^−1 ε240=39.4 M^−1 cm^−1) (48,49). 3-Nitrotyrosine formation in a 300 μL aliquot of the reaction mixture was determined in a microplate reader by monitoring absorbance at 430 nm following the addition of NaOH to adjust the pH>9.
Myeloperoxidase generates 3-nitrotyrosine in HDL protein under physiologically relevant in vitro conditions. […] We monitored the formation of 3-nitrotyrosine spectroscopically by quantifying absorbance of the alkalinized reaction mixture at 430 nm.

[1] = test system: mock-transfected BHK cells (low ABCA1); test: Cholesterol efflux from [3H]cholesterol-labeled mock-transfected BHK cells; type: cell-based, hamster; conditions: 2 to 4 h incubation
Procedure: (§1) FIG. 11 describes cholesterol efflux activities of native and HOCl-oxidized HDL, apo A-I, and peptide 18A. [^3H]Cholesterol-labeled mock-(A, C) or ABCA1-transfected (A-C) BHK cells were incubated for 4 h with native (Ctrl), H2O2-oxidized, or HOCl-oxidized HDL (20 µg/mL) or apo A-I (5 µg/mL) (A), for 2 h with 5 µg/mL apo A-I oxidized with the indicated mole ratio of HOCl (B), or for 2 h with control (−) or HOCl-oxidized (+) peptide Ac-18A-NH2 (20 µg/mL) (C). At the end of the incubation, [^3H]cholesterol efflux to the acceptor particle was measured. *P<0.01 compared with controls.
Cell Culture and Cholesterol Efflux. Baby hamster kidney (BHK) cells expressing mifepristone-inducible human ABCA1 were generated as previously described (35). Cellular cholesterol was labeled by adding 1 μCi/mL [^31H]cholesterol (NEN Life Science Products) to the growth medium. Twenty four hours later, strong expression of ABCA1 was induced by incubating the cells for 20 h with DMEM containing 1 mg/mL bovine serum albumin (DMEM/BSA) and 1 nM mifepristone (Vaughan et al., 2003. J Lipid Res 44:1373-1380). […] Cholesterol efflux mediated by HDL, apo A-I, or peptide was calculated as the percentage of total [^31H]cholesterol (medium plus cell) released into the medium after subtracting the value obtained with DMEM/BSA alone. […]

[2] = test system: ABCA1-transfected BHK cells; test: Cholesterol efflux from [3H]cholesterol-labeled ABCA1-transfected BHK cells; type: cell-based, hamster; conditions: for effect of oxidation of the acceptor on cholesterol efflux, compared with native acceptor: ABCA1-transfected BHK cells, acceptor oxidized with HOCl or H2O2
Procedure: as §1
Cell Culture and Cholesterol Efflux. Baby hamster kidney (BHK) cells expressing mifepristone-inducible human ABCA1 were generated as previously described (35). Cellular cholesterol was labeled by adding 1 μCi/mL [^31H]cholesterol (NEN Life Science Products) to the growth medium. Twenty four hours later, strong expression of ABCA1 was induced by incubating the cells for 20 h with DMEM containing 1 mg/mL bovine serum albumin (DMEM/BSA) and 1 nM mifepristone (Vaughan et al., 2003. J Lipid Res 44:1373-1380). To measure cholesterol efflux, mock- or ABCA1-transfected cells were incubated with DMEM/BSA without or with HDL, apo A-I, or peptide. After 2 to 4 h, the medium and cells were assayed for [^3H]cholesterol as described (Id.). Cholesterol efflux mediated by HDL, apo A-I, or peptide was calculated as the percentage of total [^31H]cholesterol (medium plus cell) released into the medium after subtracting the value obtained with DMEM/BSA alone.
We exposed HDL or purified apo A-I to HOCl or H2O2 (80:1 or 25:1, mol/mol, oxidant:HDL particle or oxidant:apo A-I) in a physiological buffer (138 mM NaCl, 2.7 mM KCl, 10 mM sodium phosphate) at neutral pH for 120 min at 37° C., terminating the reaction with a 20-fold molar excess (relative to oxidant) of methionine. […]

T1 sequence (P05164 279-745 limits assumed): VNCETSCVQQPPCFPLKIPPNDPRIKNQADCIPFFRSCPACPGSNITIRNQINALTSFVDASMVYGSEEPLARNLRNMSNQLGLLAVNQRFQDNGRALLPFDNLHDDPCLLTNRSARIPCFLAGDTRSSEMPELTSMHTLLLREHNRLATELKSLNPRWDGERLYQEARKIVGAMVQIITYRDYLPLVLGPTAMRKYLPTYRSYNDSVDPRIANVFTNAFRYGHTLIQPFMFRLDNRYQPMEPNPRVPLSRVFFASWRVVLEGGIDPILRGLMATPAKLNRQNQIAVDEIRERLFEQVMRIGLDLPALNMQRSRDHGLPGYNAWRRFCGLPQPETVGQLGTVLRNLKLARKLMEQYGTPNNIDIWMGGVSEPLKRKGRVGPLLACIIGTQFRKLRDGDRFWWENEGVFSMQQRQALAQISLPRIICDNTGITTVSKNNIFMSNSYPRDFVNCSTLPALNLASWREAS
T1 sequence (P05164 165-273 limits assumed): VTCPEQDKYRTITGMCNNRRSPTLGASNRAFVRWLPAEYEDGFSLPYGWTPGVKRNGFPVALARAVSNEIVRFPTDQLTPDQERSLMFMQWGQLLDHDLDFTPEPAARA

Row | Compound | cholesterol efflux to the acceptor [1] | effect of oxidation of the acceptor on cholesterol efflux, compared with native acceptor [2] | also measured
1 | NCCS(=O)(=O)O [Taurine, 2-aminoethanesulfonic acid] | – | – | effect on HDL nitration (3-nitrotyrosine formation) in the presence of Cl- (myeloperoxidase; myeloperoxidase, 100 mM Cl-, 60 min, 37° C.): no effect
2 | Acetyl-18A-NH2 | promoted cholesterol efflux | – | –
3 | H2O2-oxidized apo A-I: purified apo A-I exposed to H2O2 (25:1 mol/mol oxidant:apo A-I) | – | no effect | –
4 | HOCl-oxidized apo A-I: purified apo A-I exposed to HOCl (25:1 mol/mol oxidant:apo A-I) | – | significant decrease | –
5 | apo A-I: purified apolipoprotein A-I, HDL's major protein | essentially no cholesterol efflux activity | – | cholesterol efflux to the acceptor ([2]; ABCA1-transfected BHK cells (ABCA1 overexpressed), 2 to 4 h incubation): became active
6 | catalase | – | – | effect on HDL nitration (3-nitrotyrosine formation) (myeloperoxidase; 1 mg/ml HDL, 50 nM myeloperoxidase, pH 7.4, 37° C., catalase 200 nM, sodium azide 10 mM): inhibited
